The values that follow come from ChEMBL document CHEMBL3045373, “New thiazolidinyl analogs containing pyridine ring: synthesis, biological evaluation and QSAR studies” (2013).

Each structure is given as a SMILES string.

The test system of assay [1] is Mus musculus. The assay can be described thus: Analgesic activity in Mus musculus Swiss albino (mouse) assessed as inhibition of acetic acid-induced writhing at 50 mg/kg, po administered 30 min prior to acetic acid challenge measured at 5 to 15 min relative to untreated control. The class given is functional. (Writhing tests count abdominal constrictions after an irritant is injected.)

For assay [2], the system named is Rattus norvegicus. In words: Anti-inflammatory activity against Rattus norvegicus Wistar (rat) assessed as inhibition of carrageenan-induced paw edema at 10 mg/kg, po administered 30 min prior to carrageenan challenge measured at 120 min by plethysmometeric analysis relative to untreated control. It is filed as functional. Background: The carrageenan paw model is a standard test of acute inflammation.

Turning to `O=C1N/C(=N/c2ccccc2)S/C1=C\c1ccccn1`, the inhibition in vivo at 50 mg/kg in assay [1] worked out at 29.2%. Also, the inhibition in vivo at 10 mg/kg in assay [2] was found to be 26.2%.
The matching figures for `O=C1N/C(=N/c2ccc(Cl)cc2)S/C1=C\c1ccccn1`: 41.7% and 34.8%.
For `Cc1cccc(/N=C2/NC(=O)/C(=C/c3ccccn3)S2)c1`, in assay [1], the inhibition in vivo at 50 mg/kg amounted to 52.3%. Further, in assay [2], the inhibition in vivo at 10 mg/kg was determined as 39.7%.
The matching figures for `Cc1ccc(/N=C2/NC(=O)/C(=C/c3ccccn3)S2)cc1`: 43.2% and 43.8%.
In the same order, the values of `O=C1N/C(=N/c2ccc(F)cc2)S/C1=C\c1ccccn1` are 43.2% and 34.7%.
The matching figures for `O=C1N/C(=N\Nc2ccccc2)S/C1=C\c1ccccn1`: 46.2% and 39.7%.
For the compound `O=C1N/C(=N\c2ccccc2[N+](=O)[O-])S/C1=C/c1ccccn1`, in assay [1], the inhibition in vivo at 50 mg/kg is 36.7%. Besides, in assay [2], the inhibition in vivo at 10 mg/kg is 34.8%.
In the same order, the values of `O=C1N/C(=N\Nc2ccc([N+](=O)[O-])cc2[N+](=O)[O-])S/C1=C\c1ccccn1` are 68.7% and 56.5%.
The matching figures for `COc1ccc(/N=C2\NC(=O)/C(=C/c3ccccn3)S2)cc1`: 42.4% and 39.1%.
On to `O=C1N/C(=N/c2cccc([N+](=O)[O-])c2)S/C1=C\c1ccccn1`, for which the inhibition in vivo at 50 mg/kg in assay [1] was 62.3%. Besides, the inhibition in vivo at 10 mg/kg in assay [2] was 43.5%.
In the same order, the values of `O=C1N/C(=N/c2ccc([N+](=O)[O-])cc2Cl)S/C1=C\c1ccccn1` are 37.4% and 39.7%.
In the same order, the values of `Cc1cccc(C)c1/N=C1/NC(=O)/C(=C/c2ccccn2)S1` are 51.5% and 39.7%.
For `O=C1N/C(=N/c2ccccc2Cl)S/C1=C\c1ccccn1`, in assay [1], the inhibition in vivo at 50 mg/kg turned out to be 36.2%. Besides, in assay [2], the inhibition in vivo at 10 mg/kg worked out at 26.2%.
In the same order, the values of `Cc1ccccc1/N=C1/NC(=O)/C(=C/c2ccccn2)S1` are 43.6% and 30.4%.
Turning to `O=C1N/C(=N/c2ccc(Br)cc2)S/C1=C\c1ccccn1`, the inhibition in vivo at 50 mg/kg in assay [1] came to 28.7%. The inhibition in vivo at 10 mg/kg in assay [2] is 30.4%.
In the same order, the values of `O=C(O)Cc1ccccc1Nc1c(Cl)cccc1Cl` [DICLOFENAC SODIUM] are 60.2% and 43.5%.

The term inhibition in vivo denotes the relative decrease from the control value, in per cent.
